Measured values reported in patent US20200172966A1 (YAMAGUCHI UNIVERSITY, priority 2015, published 2020).

Experiment: incidence of side effect (hematologic toxicity) by single nucleotide polymorphism genotype in Japanese patients with colon cancer who had received irinotecan
Type: in vivo, human
Experimental: By using TaqMan SNP Assays Human (manufactured by Applied Biosystems, Inc.) and LightCycler (R) 480 Probe Master (manufactured by Roche Diagnostics, Inc.), Universal ProbeLibrary (manufactured by Roche Diagnostics, Inc.), and LightCycler 480 System II (manufactured by Roche Diagnostics, Inc.), 10 ng of genomic DNA was subjected to genotyping. After incubation at 95° C. for 10 min, the sample was subjected to PCR amplification with 55 cycles for rs1980576, rs2272761, and rs9425343, 45 cycles for rs12577167, rs7265854, and rs1135640, or 40 cycles for rs1547 (1 cycle consisted of 92° C. for 15 sec and 60° C. for 60 sec). The fluorescence emitted from the PCR products were measured.
The “Odds ratio” in Table 3 refers to an odds ratio indicating the occurrence of a side effect as calculated using a Fisher's exact test on a single nucleotide polymorphism being homozygous for a wild-type or homozygous for a variant type.
The term (P value/C.-A.) in Table 4 is the same as in Table 2. […] The term “Odds ratio” in Table 5 is the same as in Table 3.

[1] = N = 67, homozygous UGT1A1*28, homozygous *6, compound heterozygous excluded (Table 2), ACOX1 rs1135640 C/C
[2] = N = 67, homozygous UGT1A1*28, homozygous *6, compound heterozygous excluded (Table 2), ACOX1 rs1135640 C/G
[3] = N = 67, homozygous UGT1A1*28, homozygous *6, compound heterozygous excluded (Table 2), ACOX1 rs1135640 G/G
[4] = N = 67, homozygous UGT1A1*28, homozygous *6, compound heterozygous excluded (Table 3), ACOX1 rs1135640 G/G
[5] = N = 67, homozygous UGT1A1*28, homozygous *6, compound heterozygous excluded, ACOX1 rs1135640 C/C, C/G
[6] = N = 67, homozygous UGT1A1*28, homozygous *6, compound heterozygous excluded, APCDD1L rs1980576 A/A
[7] = N = 67, homozygous UGT1A1*28, homozygous *6, compound heterozygous excluded, APCDD1L rs1980576 A/A, A/G
[8] = N = 67, homozygous UGT1A1*28, homozygous *6, compound heterozygous excluded, APCDD1L rs1980576 A/G, G/G
[9] = N = 67, homozygous UGT1A1*28, homozygous *6, compound heterozygous excluded, APCDD1L rs1980576 G/G
[10] = N = 67, homozygous UGT1A1*28, homozygous *6, compound heterozygous excluded, APCDD1L rs7265854 C/C
[11] = N = 67, homozygous UGT1A1*28, homozygous *6, compound heterozygous excluded, APCDD1L rs7265854 T/T, T/C
[12] = N = 67, homozygous UGT1A1*28, homozygous *6, compound heterozygous excluded, EDEM3 rs9425343 T/G, G/G
[13] = N = 67, homozygous UGT1A1*28, homozygous *6, compound heterozygous excluded, EDEM3 rs9425343 T/T
[14] = N = 67, homozygous UGT1A1*28, homozygous *6, compound heterozygous excluded, R3HCC1 rs2272761 G/A, A/A
[15] = N = 68, homozygous UGT1A1*28, homozygous *6, compound heterozygous excluded, APCDD1L rs1980576 A/A
[16] = N = 68, homozygous UGT1A1*28, homozygous *6, compound heterozygous excluded, APCDD1L rs1980576 A/G
[17] = N = 68, homozygous UGT1A1*28, homozygous *6, compound heterozygous excluded, APCDD1L rs1980576 G/G
[18] = N = 68, homozygous UGT1A1*28, homozygous *6, compound heterozygous excluded, APCDD1L rs7268854 A/A
[19] = N = 68, homozygous UGT1A1*28, homozygous *6, compound heterozygous excluded, APCDD1L rs7268854 A/G
[20] = N = 68, homozygous UGT1A1*28, homozygous *6, compound heterozygous excluded, APCDD1L rs7268854 G/G
[21] = N = 68, homozygous UGT1A1*28, homozygous *6, compound heterozygous excluded, CSMD2 rs474474 A/A
[22] = N = 68, homozygous UGT1A1*28, homozygous *6, compound heterozygous excluded, CSMD2 rs474474 A/G
[23] = N = 68, homozygous UGT1A1*28, homozygous *6, compound heterozygous excluded, CSMD2 rs474474 G/G
[24] = N = 68, homozygous UGT1A1*28, homozygous *6, compound heterozygous excluded, EDEM3 rs9425343 G/G
[25] = N = 68, homozygous UGT1A1*28, homozygous *6, compound heterozygous excluded, EDEM3 rs9425343 T/G
[26] = N = 68, homozygous UGT1A1*28, homozygous *6, compound heterozygous excluded, EDEM3 rs9425343 T/T
[27] = N = 68, homozygous UGT1A1*28, homozygous *6, compound heterozygous excluded, GATA2 rs2335052 A/A
[28] = N = 68, homozygous UGT1A1*28, homozygous *6, compound heterozygous excluded, GATA2 rs2335052 G/A
[29] = N = 68, homozygous UGT1A1*28, homozygous *6, compound heterozygous excluded, GATA2 rs2335052 G/G
[30] = N = 68, homozygous UGT1A1*28, homozygous *6, compound heterozygous excluded, MKKS rs1547 C/C
[31] = N = 68, homozygous UGT1A1*28, homozygous *6, compound heterozygous excluded, MKKS rs1547 C/T
[32] = N = 68, homozygous UGT1A1*28, homozygous *6, compound heterozygous excluded, MKKS rs1547 T/T
[33] = N = 68, homozygous UGT1A1*28, homozygous *6, compound heterozygous excluded, OR5112 rs12577167 A/A
[34] = N = 68, homozygous UGT1A1*28, homozygous *6, compound heterozygous excluded, OR5112 rs12577167 A/G
[35] = N = 68, homozygous UGT1A1*28, homozygous *6, compound heterozygous excluded, OR5112 rs12577167 G/G
[36] = N = 68, homozygous UGT1A1*28, homozygous *6, compound heterozygous excluded, R3HCC1 rs2272761 A/A
[37] = N = 68, homozygous UGT1A1*28, homozygous *6, compound heterozygous excluded, R3HCC1 rs2272761 G/A
[38] = N = 68, homozygous UGT1A1*28, homozygous *6, compound heterozygous excluded, R3HCC1 rs2272761 G/G

CCc1c2c(nc3ccc(OC(=O)N4CCC(N5CCCCC5)CC4)cc13)-c1cc3c(c(=O)n1C2)COC(=O)[C@]3(O)CC [irinotecan, 1,4′-Bipiperidine-1′-carboxylic acid (S)-4,11-diethyl-3,4,12,14-tetrahydro-4-hydroxy-3,14-dioxo-1H-pyrano[3′,4′:6,7]indolizino[1,2-b]quinolin-9-yl ester]
irinotecan side effect observed (68 cases considered to have a low risk of a side effect in view of the UGT1A gene polymorphisms): 42.6% | Toxicity No [1]: 3 | Toxicity Yes [1]: 6 | Toxicity No [2]: 14 | Toxicity Yes [2]: 15 | Toxicity No [3]: 21 | Toxicity Yes [3]: 8 | Toxicity No [4]: 21 | Toxicity Yes [4]: 8 | Toxicity No [5]: 17 | Toxicity Yes [5]: 21 | Toxicity No [6]: 16 | Toxicity Yes [6]: 5 | Toxicity No [7]: 35 | Toxicity Yes [7]: 21 | Toxicity No [8]: 22 | Toxicity Yes [8]: 24 | Toxicity No [9]: 3 | Toxicity Yes [9]: 8 | Toxicity No [10]: 8 | Toxicity Yes [10]: 1 | Toxicity No [11]: 30 | Toxicity Yes [11]: 28 | Toxicity No [12]: 31 | Toxicity Yes [12]: 17 | Toxicity No [13]: 7 | Toxicity Yes [13]: 12 | Toxicity No [14]: 32 | Toxicity Yes [14]: 29 | Toxicity No (N = 67, homozygous UGT1A1*28, homozygous *6, compound heterozygous excluded, R3HCC1 rs2272761 G/G): 6 | Toxicity No [15]: 16 | Toxicity Yes [15]: 5 | Toxicity No [16]: 20 | Toxicity Yes [16]: 16 | Toxicity No [17]: 3 | Toxicity Yes [17]: 8 | Toxicity No [18]: 13 | Toxicity Yes [18]: 13 | Toxicity No [19]: 18 | Toxicity Yes [19]: 15 | Toxicity No [20]: 8 | Toxicity Yes [20]: 1 | Toxicity No [21]: 16 | Toxicity Yes [21]: 17 | Toxicity No [22]: 18 | Toxicity Yes [22]: 8 | Toxicity No [23]: 5 | Toxicity Yes [23]: 4 | Toxicity No [24]: 10 | Toxicity Yes [24]: 3 | Toxicity No [25]: 21 | Toxicity Yes [25]: 14 | Toxicity No [26]: 8 | Toxicity Yes [26]: 12 | Toxicity No [27]: 5 | Toxicity Yes [27]: 3 | Toxicity No [28]: 20 | Toxicity Yes [28]: 10 | Toxicity No [29]: 14 | Toxicity Yes [29]: 16 | Toxicity No [30]: 20 | Toxicity Yes [30]: 8 | Toxicity No [31]: 16 | Toxicity Yes [31]: 16 | Toxicity No [32]: 3 | Toxicity Yes [32]: 5 | Toxicity No [33]: 19 | Toxicity Yes [33]: 20 | Toxicity No [34]: 14 | Toxicity Yes [34]: 8 | Toxicity No [35]: 6 | Toxicity Yes [35]: 1 | Toxicity No [36]: 22 | Toxicity Yes [36]: 21 | Toxicity No [37]: 11 | Toxicity Yes [37]: 8 | Toxicity No [38]: 6 | Toxicity Yes [38]: 0
